Laboratory results as given in patent US11365202B2, “Antimalarial compounds, process for preparation and their use for drug resistant malaria” (Council of Scientific and Industrial Research, priority 2018, dated 2022).

Columns and labels:
[1] = test system: P. falciparum 3D7; test: P. falciparum growth inhibition assay, 3D7 strain; format: cell-based; conditions: Plasmodium falciparum, 3D7, 48 h, read-out: EC50 on P. falciparum 3D7
Protocol: (§1) P. falciparum strain 3D7, Dd2 and 7G8 were cultured in RPMI media (Invitrogen) supplemented with 0.5% albumax and 4% haematocrit using a protocol described previously [Trager and Jensen (Science,1976; 193:673-675)]. Cultures were synchronized by repeated sorbitol treatment following Lambros and Vanderberg (J Parasitol; 1979; 65:418-420). Each growth inhibition assay was performed in triplicate and the experiment was repeated twice. Each well contained 0.5 ml of complete media [RPMI (invitrogen) with 0.5% albumax], 4% haematocrit and the parasitaemia adjusted to ˜1%; the compound added to the parasite cultures to desired final concentrations (0-100 µM) and same amount of solvent (DMSO) was added to the control wells. The cultures were allowed to grow further for 48 h. Parasite growth was assessed by DNA fluorescent dye-binding assay using SYBR green (Sigma) following Smilkstein et al (Antimicrob Agents Chemother.; 2004, 48, 1803-1806). • f) In Vitro Toxicity Assay on CHO Cells

[2] = test system: A549 human cells; test: In vitro toxicity on mammalian cell culture; format: cell-based; conditions: for EC50: Homo sapiens, A549, in vitro toxicity
[3] = test system: P. falciparum Dd2; test: P. falciparum growth inhibition assay, Dd2 strain; format: cell-based; conditions: Plasmodium falciparum, DD2, read-out: EC50 on P. falciparum Dd2
Protocol: as §1

[4] = test system: P. falciparum 7G8; test: P. falciparum growth inhibition assay, 7G8 strain; format: cell-based; conditions: Plasmodium falciparum, 7G8, read-out: EC50 on P. falciparum 7G8
Protocol: as §1

[5] = test system: P. berghei; test: In vivo parasiticidal assay with P. berghei mice malaria model; conditions: for protection in treated group of mice: 12.5 mg/kg of body weight; for Complete Protection - Mice with complete parasite clearance / Survival after treatment: 4 doses of 12.5 mg/Kg of body weight, infected BALB/c mice
Protocol: Five groups of female BALB/c mice, 6-8 weeks of age (four mice/group) were used for testing the in vivo parsiticidal and protective efficacy of different drug treatments. Mice were injected IP with 1×10^6 P. berghei infected erythrocytes. The drug treatment was initiated 5 days after inducing parasitemia; mice in a group were given 4 doses of a compound at 12.5 mg/Kg of body weight. Control mice were given solvent alone. The parasitemia was assessed everyday in thin smears of Giemsa stained RBCs from tail blood of each mouse, by counting parasitized erythrocytes in more than 10,000 erythrocytes. Time of death of the mice in each group was also monitored.

Structure (SMILES)	EC50 [1] [nM]	in vitro toxicity on A549 human cells (in words) [2]	EC50 [2] [nM]	EC50 [3] [nM]	EC50 [4] [nM]	protection in treated group of mice [5] [%]	Complete Protection - Mice with complete parasite clearance [5]	Survival after treatment [5] [days]
CCOP(=O)(/C=C/C(NC(=O)[C@H](CC(C)C)NC(=O)[C@@H]1C[C@@H](O[C@H]2O[C@@H]3OC4(C)CC[C@H]5[C@H](C)CC[C@@H]([C@H]2C)[C@@]35OO4)CN1C(=O)OCc1ccccc1)c1ccccc1)OCC (stereo in doubt) [Compound 5, Benzyl (2S,4R)-2-(((2S)-1-(((E)-3-(diethoxyphosphoryl)-1-phenylallyl)amino)-4-methyl-1-oxopentan-2-yl)carbamoyl)-4-(((3R,5aS,6R,8aS,9R,10S,12R,12aR)-3,6,9-trimethyldeca hydro-12H-3,12-epoxy[1,2]dioxepino[4,3-i]isochromen-10-yl)oxy)pyrrolidine-1-carboxylate]	2.57	non-toxic	1280 ± 156	5.5	1.2	100	100% of treated mice	>60
CCOP(=O)(/C=C/C(NC(=O)[C@H](CC(C)C)NC(=O)[C@H](CO[C@H]1O[C@@H]2OC3(C)CC[C@H]4[C@H](C)CC[C@@H]([C@H]1C)[C@@]24OO3)NC(=O)OCc1ccccc1)c1ccccc1)OCC (stereo in doubt) [Compound 3, Benzyl ((2S)-1-(((2S)-1-(((E)-3-(diethoxyphosphoryl)-1-phenylallyl)amino)-4-methyl-1-oxopentan-2-yl)amino)-1-oxo-3-(((3R,5aS,6R,8aS,9R,10S,12R,12aR)-3,6,9-trimethyldeca hydro-12H-3,12-epoxy[1,2]dioxepino[4,3-i]isochromen-10-yl)oxy)propan-2-yl)carbamate]	3.3	non-toxic	3820 ± 161	3.5	0.23	100	100% of treated mice	>60
